Reference: patent US6090987A, “Metal-ligand complex catalyzed processes” (Union Carbide Chemicals & Plastics Technology Corporation, priority 1998, dated 2000)

Tests used:
[1] = Residual propylene hydroformylation activity after heat treatment, Ligand F catalyst (Table 1)
Procedure: A catalyst solution (100 milliliters) was generated in a six ounce Fisher Porter Bottle by dissolving 0.063 grams of rhodium dicarbonyl 2,4-pentanedionate, 0.8 grams of Ligand F, 20 grams of n-butyraldehyde, and 78.7 grams of tetraethylene glycol dimethyl ether, subsequently alternately evacuating and flushing with nitrogen; and finally adding 60 psi of CO:H2, and placing the bottles in a 100° C. oil bath for 1 hour.
(§1) After closing the reactor, the system was again purged with nitrogen and place in an oil bath heated to 100° C. The hydroformylation reaction in each experiment was conducted at a total gas pressure of 160 psig. The target partial pressure of hydrogen, carbon monoxide, and propylene being about 45 psia, 45 psia, and 5 psia respectively, with the remainder being nitrogen. The flows of the feed gases (carbon monoxide, hydrogen, propylene, and nitrogen) were controlled individually with mass flow meters. The feed gases were dispersed into the precursor solution via stainless steel 7-micron filters used as spargers. The unreacted portion of the feed gases stripped out the product aldehydes. Each experiment was operated for 24 hours under the above conditions. The activity is defined as the observed reaction rate divided by the predicted reaction rate. The reaction rates are expressed in terms of gram moles per liter per hour.
The same procedure as in Example 2 was followed with the exception that a slow stream of 1,2-propadiene was purged through the initially generated catalyst solution for 5 minutes. Excess was then removed by alternately evacuating and flushing with nitrogen. The resulting solution was heated at 125° C. as in Example 2, and 20 milliliters of the resulting solution was transferred to a glass reactor as in Example 2 and the activity determined.
(§2) The same procedure as in Example 3 was followed except 2 milliliters of 1,3-butadiene was added to the generated catalyst and stirred for 5 minutes. Excess 1,3-butadiene was then removed by alternate evacuation and flushing with nitrogen. The resulting solution was heated at 125° C. as in Example 2, and 20 milliliters of the resulting solution was transferred to a glass reactor as in Example 2 and the activity determined.
The same procedure as in Example 4 was followed with the exception that 50 milliliters of a catalyst solution generated as in Example 2 was treated with 0.5 milliliters of 2-methyl-1,3-butadiene (isoprene) in place of 1,3-butadiene.
A catalyst solution (20 milliliters) was generated in a Fisher Porter Bottle as in Example 2 under 60 psi CO:H2 for 1 hour, then cooled to room temperature and treated with 0.5 milliliters of 1,3-butadiene. The solution was removed from the Fisher Bottle by hypodermic syringe and transferred to a 100 milliliter stirred stainless vessel and maintained at 140° C. under 15 psi nitrogen for 14 hours. The resulting solution was then transferred to the glass reactors as in Example 2, and the residual catalyst activity measured. […]
The same procedure as in Example 8 was followed except allene was employed in place of 1,3-butadiene, and the resulting solution heated at 140° C. for 48 hours without removing excess allene.
A 20 milliliter sample of freshly generated catalyst solution (prepared as in Example 2) was charged to the glass reactors and the activity measured.
The same procedure as in Example 8 was followed except 0.4 grams of 1,3-cyclohexadiene was employed in place of 1,3-butadiene.

[2] = Residual propylene hydroformylation activity after heat treatment, Ligand D catalyst (Table 1); settings: 125° C./50 hours, excess diene checked
Procedure: as §1, with “About 20 milliliters of the solution was charged to a glass reactor via a syringe after purging the reactor with nitrogen (see Examples 14-20 below). After” for “After”
as §2
The same procedure as in Example 4 was followed except Ligand D (as identified herein) was employed in place of Ligand F. The results are given in Table 1.
The same procedure as in Example 10 was followed except the fresh catalyst solution contained Ligand D in place of Ligand F. The results are given in Table 1.

[3] = 125° C./24 hours, no excess diene
[4] = 140° C./14 hours, excess diene present
[5] = 140° C./48 hours, excess diene present

C=CC=C [Butadiene, 1,3-butadiene]
% Activity [1, 3]: 102% | Final Rate [1, 3]: 2.23 gram moles per liter per hour | % Activity [1, 4]: 25.2% | Final Rate [1, 4]: 0.55 gram moles per liter per hour | % Activity [1, 5]: 96.3% | Final Rate [1, 5]: 2.10 gram moles per liter per hour | % Activity [2]: 116% | Final Rate [2]: 1.23 gram moles per liter per hour
